Patent US20110052676A1, “Composition For Delaying Cellular Senescence” (priority 2009, published 2011)

Legend:
Type in all cases: cell-based, Human
[1] = system: intrinsically-aged dermal fibroblasts; experiment: Delayed senescence in intrinsically-aged dermal fibroblasts measured by SA-β-Gal staining; settings: for expression of SA-β-Gal (number of stained cells) vs untreated cells: after 18 population doublings, FIG. 1
Method: The peptide isolated from Example 2 was employed to examine the ability of the peptide to delay senescence in dermal fibroblasts aged through a series of population doublings.
Human neonatal fibroblasts were obtained after primary culture (passage 1) and seeded into a set of T-75 flasks in 3 ml/flask of Fibroblast Growth Media (FGM) and grown at 37±2° C. and 5±1% CO2. The cells were expanded through 6 passages (one passage was defined as growing the cells until the flask was confluent and then splitting the cells 1:2, thus one passage was roughly equal to one population doubling). After the 6th passage, the fibroblasts were split into different treatment groups and treated with the various test materials through passage 18. At passage 18 a portion of the fibroblasts were used to assay changes in Senescence Associated-β-Galactosidase (SA-β-Gal), while the remaining fibroblasts were cultured for an additional week (approximately 2 additional passages) in the absence of test materials.
Prior to staining, the fibroblasts were washed once with PBS and then fixed for approximately 6 minutes in fixing solution (2% formaldehyde and 0.2% glutaraldehyde in PBS). After fixing, the cells were washed three times with PBS, followed by the addition of the staining solution (150 mM NaCl, 2 mM MgCl2, 40 mM citric acid (pH 6.0), 12 mM NaPO3, 5 mM potassium ferrocyanide, 5 mM potassium ferricyanide, and […] X-gal). The cells were then incubated at 37° C. overnight in a non-CO2 incubator. On the following day the staining solution was removed and replaced with PBS. The cells were then photographed microscopically and the number of stained cells (SA-β-Gal positive) in each field was counted.

ATM = experiment: H2O2 stress-induced premature senescence in epidermal keratinocytes, ATM expression (ELISA); settings: 1% treatment level, after 150 μM H2O2 for two hours, FIG. 2
Method: (§1) Human epidermal keratinocytes were seeded into culture flasks and grown at 37±2° C. and 5±1% CO2 using serum free Epilife media supplemented as recommended by the manufacturer. When a sufficient number of cells had been grown they were transferred to 96-well plates and cultured for a minimum of 24 hours to allow the cells to adhere to the well plates. After the initial 24-hour incubation, the media was changed to remove any non-adherent cells and the remaining cells were cultured until confluent, with a media change every 48 to 72 hours as needed.
(§2) Premature cellular senescence was induced by treating the keratinocytes with H2O2. For the H2O2 treatment, the cell culture media was replaced with phosphate buffered saline (PBS) supplemented with 150 μM of H2O2 . The cells were incubated in the H2O2 solution for two hours, after which they were washed once with PBS and then fresh media, either with or without test material, was applied to the cells. At these levels, the H2O2 treatment was not observed to have an impact on cell viability.
(§3) Relative changes in the amount of ATM and p53 expression were determined in the keratinocytes using ELISA based methods. […] After a sufficient level of color development was achieved the plate was read at 460 nm using a plate reader.

p53 = experiment: H2O2 stress-induced premature senescence in epidermal keratinocytes, p53 expression (ELISA); settings: 1% treatment level, after 150 μM H2O2 for two hours, FIG. 3
Method: as §1, §2, §3

dermal papillae cells = experiment: UV stress-induced premature senescence in dermal papillae cells measured by SA-β-Gal staining; settings: 20 mJ/cm^2 UVB, 48 hours, FIG. 4
Method: Human dermal papillae cells were seeded into 12 well plates in Dermal Papillae Growth Medium (DPGM) and grown at 37±2° C. and 5±1% CO2 until confluent with a media change every 48 to 72 hours as needed. Once the cells were confluent, the cell culture media was replaced with PBS and the cells were irradiated with 20 mJ/cm^2 UVB. After the UVB irradiation, the PBS was removed and replaced with cell culture media supplemented with the various test materials. Non-supplemented DPGM was used as the untreated control. One set of cells was not exposed to UVB and served as the non-UVB treated control. After the addition of the media, sets of cells were cultured for 48 hours. At the end of the incubation period the cells were obtained and assayed for changes in SA-β-Gal activity.
In a second set of studies, dermal papillae cells were grown and plated as described above. […] This was done to determine the effects of the test materials alone on the markers measured in this study.
After the 48 hour incubation, the cells were washed with PBS and then briefly fixed for 6-7 minutes in fixation buffer (2% formaldehyde and 0.2% glutaraldehyde in PBS). […] On the following day, the wells were examined microscopically and photographed so that the number of stained cells per field could be quantified. The number of positive staining cells in each field was counted. […]

Ogg1 = experiment: Cellular expression of DNA repair enzyme Ogg1 in fibroblasts (microfiltration blot, immunodetection); settings: treatment level 0.1%, 24 hours, FIG. 5
Method: Human fibroblasts were seeded into culture flasks and grown at 37±2° C. and 5±1% CO2 using FGM. When a sufficient number of cells had been grown they were transferred to 24-well plates and cultured for a minimum of 24 hours to allow the cells to adhere to the well plates. The cells were then grown until confluent, with a media change every 48 to 72 hours.
The test materials were prepared in FGM. The media was then removed from the culture plates and replaced with 0.5 ml of media supplemented with test material, with each treatment being tested in triplicate. FGM alone served as the untreated control. After the application of the cell culture media, the plates were incubated for 24 hours at 37±2° C. and 5±1% CO2. At the end of the incubation period the culture media was removed and the cells were washed once with phosphate buffered saline. […] The protein concentration of the supernatant was determined using the BCA Protein Assay. […]
After the final wash, the membrane was placed into a BioRad Molecular Imager FX and scanned using an excitation laser and emission filter combination appropriate for the fluorophore. Images produced by the scanner were then analyzed using ImageJ image analysis software.
Fluorescence intensity measurements were expressed in Relative Fluorescence Units (RFU). Mean RFU values for each treatment were then calculated and treatments were compared using a one way ANOVA.

CN[C@@H](Cc1ccccc1)C(=O)N[C@H](C(=O)N[C@@H](C)C(=O)N1CCC[C@H]1C(=O)N[C@@H](Cc1ccccc1)C(=O)N1CCC[C@H]1C(=O)O)C(C)C [Hexapeptide, Phe-Val-Ala-Pro-Phe-Pro]
expression of SA-β-Gal (number of stained cells) vs untreated cells ([1]; 0.5% Hexapeptide treatment): untreated cells was statistically higher than that seen at 0.5 or 1.0% Hexapeptide treatment | expression of SA-β-Gal (number of stained cells) vs untreated cells ([1]; 1.0% Hexapeptide treatment): untreated cells was statistically higher than that seen at 0.5 or 1.0% Hexapeptide treatment | expression of SA-β-Gal one week after removal of the Hexapeptide ([1]; 1% treatment): increase but not yet back to normal | expression of SA-β-Gal one week after removal of the Hexapeptide ([1]; all treatments except the 1% treatment): returns to normal | expression of ATM protein vs prematurely senescent untreated keratinocytes (ATM): statistically delay senescence | expression of p53 protein vs prematurely senescent untreated keratinocytes (p53): statistically delay senescence | SA-β-Gal expression (number of stained cells) after UV (dermal papillae cells; 0.5% Hexapeptide): statistically significant decrease | SA-β-Gal expression (number of stained cells) after UV (dermal papillae cells; 1.0% Hexapeptide): statistically significant decrease | expression of Ogg1 (RFU) vs untreated control (Ogg1): statistically increase expression of Ogg1
